What was measured:
Experiment in all cases: Abscisic acid-sensitivity of seed embryo (seeds cut in halves, sprouting and sprout stretching)
Assay type in all cases: in vivo
[1] = test system: Sanin 1 wheat seeds (the dormancy has been disrupted)
Protocol: (§1) Next, seeds obtained from 3 varieties Minaminokomugi, Sanin 1 and Tozan 18) and seeds in which dormancy has been disrupted (Minaminokomugi, Sanin 1) were soaked individually in 5% (W/V) Benlate T(DuPont, USA) for 10 minutes, then sterilized by washing with distilled water. The grains of these wheat seeds were cut in halves to be laid in pet dish. A section where 8 mL of abscisic acid (ABA) solution was added and a section where 8 mL of distilled water was added were produced for each seed, followed by culturing at 22° C. for 6 days to determine the sprouting rate and the degree of sprout stretching.

[2] = test system: Sanin 1 wheat seeds (weak dormancy)
Protocol: as §1

[3] = test system: Minaminokomugi wheat seeds (the dormancy has been disrupted)
Protocol: as §1

[4] = test system: Tozan 18 wheat seeds (weak dormancy)
Protocol: as §1

[5] = test system: Minaminokomugi wheat seeds (strong dormancy)
Protocol: as §1

## CC1=CC(=O)CC(C)(C)[C@@]1(O)/C=C/C(C)=C\C(=O)O [ABA, abscisic acid]
[1]; Sanin 1 (dormancy disrupted), seeds cut in halves, + 10 μM ABA, 22° C., 6 days
  Sprouting Rate (%): 100%
[1]; seeds of Sanin 1 in which dormancy has been disrupted
  abscisic acid-sensitivity: weak abscisic acid-sensitivity or insensitivity
[2]; Sanin 1, seeds cut in halves, + 10 μM ABA, 22° C., 6 days
  Sprouting Rate (%): 100%
[2]; seeds of Sanin 1 with weak dormancy
  abscisic acid-sensitivity: weak abscisic acid-sensitivity or insensitivity
[3]; Minaminokomugi (dormancy disrupted), seeds cut in halves, + 10 μM ABA, 22° C., 6 days
  Sprouting Rate (%): 70%
[3]; seeds of Minaminokomugi in which dormancy has been disrupted
  abscisic acid-sensitivity: weak abscisic acid-sensitivity or insensitivity
[4]; Tozan 18, seeds cut in halves, + 10 μM ABA, 22° C., 6 days
  Sprouting Rate (%): 100%
[4]; seeds of Tozan 18 with weak dormancy
  abscisic acid-sensitivity: weak abscisic acid-sensitivity or insensitivity
[5]; Minaminokomugi, seeds cut in halves, + 10 μM ABA, 22° C., 6 days
  Sprouting Rate (%): 0%
[5]; seed of Minaminokomugi with strong dormancy
  abscisic acid-sensitivity: strong abscisic acid-sensitivity
